From ChEMBL document CHEMBL4627407, “Identification of a Potent Oridonin Analogue for Treatment of Triple-Negative Breast Cancer” (J Med Chem, 2020)
The source made the active and inactive calls. The rule behind the calls is not given here.

Assays:
MDA-MB-231 [1] = test: Potency index, ratio of oridonin IC50 to compound IC50 for antiproliferative activity against human MDA-MB-231 cells after 72 hrs by MTT assay; type: functional
DU-4475 [2] = test: Antiproliferative activity against human DU4475 cells after 72 hrs by MTT assay; type: functional, cell-based; conditions: DU-4475, 72 h
DU-4475 [3] = test: Potency index, ratio of oridonin IC50 to compound IC50 for antiproliferative activity against human DU4475 cells after 72 hrs by MTT assay; type: functional
HCC1806 [4] = test: Potency index, ratio of oridonin IC50 to compound IC50 for antiproliferative activity against human HCC1806 cells after 72 hrs by MTT assay; type: functional
MDA-MB-468 [5] = test: Potency index, ratio of oridonin IC50 to compound IC50 for antiproliferative activity against human MDA-MB-468 cells after 72 hrs by MTT assay; type: functional
HCC1806 [6] = test: Antiproliferative activity against human HCC1806 cells after 72 hrs by MTT assay; type: functional, cell-based; conditions: HCC1806, 72 h
MDA-MB-231 [7] = test: Antiproliferative activity against human MDA-MB-231 cells after 72 hrs by MTT assay; type: functional, cell-based; conditions: MDA-MB-231, 72 h
MDA-MB-468 [8] = test: Antiproliferative activity against human MDA-MB-468 cells after 72 hrs by MTT assay; type: functional, cell-based; conditions: MDA-MB-468, 72 h
[9] = Toxicity in ICR mouse assessed as reduction in body weight at 6 mg/kg, iv administered once per 2 days for 23 consecutive days and measured every 2 days; type: organism-based; conditions: in vivo, 48 h
HCC1806 [10] = test: Antitumor activity against human HCC1806 cells in ICR mouse assessed as increase in apoptosis in tumor at 6 mg/kg, iv administered once per 2 days for 23 consecutive days by hematoxylin and eosin staining based histopathological assay; type: functional, organism-based
HCC1806 [11] = test: Antitumor activity against human HCC1806 cells in ICR mouse assessed as increase in apoptosis in tumor at 6 mg/kg, iv administered once per 2 days for 23 consecutive days by Ki67 staining-based immunohistochemical analysis; type: functional, organism-based
HCC1806 [12] = test: Antitumor activity against human HCC1806 cells in ICR mouse assessed as tumor shrinkage at 6 mg/kg, iv administered once per 2 days for 23 consecutive days by TUNEL based immunohistochemical analysis; type: functional, organism-based
HCC1806 [13] = test: Antitumor activity against human HCC1806 cells in ICR mouse assessed as reduction in tumor weight at 6 mg/kg, iv administered once per 2 days for 23 consecutive days and measured every 2 days relative to control; type: functional; parameters: scale not given: the % may be the effect or the level left
HCC1806 [14] = test: Antitumor activity against human HCC1806 cells in ICR mouse assessed as tumor shrinkage at 6 mg/kg, iv administered once per 2 days for 23 consecutive days by hematoxylin and eosin staining based histopathological assay; type: functional, organism-based
HCC1806 [15] = test: Antitumor activity against human HCC1806 cells in ICR mouse assessed as increase in apoptosis in tumor at 6 mg/kg, iv administered once per 2 days for 23 consecutive days by TUNEL based immunohistochemical analysis; type: functional, organism-based
HCC1806 [16] = test: Antitumor activity against human HCC1806 cells harboring luciferase gene xenografted in ICR mouse assessed as shrunken tumor tissue at 6 mg/kg, iv administered once per 2 days for 21 consecutive days and measured once every week; type: functional, organism-based
HCC1806 [17] = test: Antitumor activity against human HCC1806 cells in ICR mouse assessed as tumor shrinkage at 6 mg/kg, iv administered once per 2 days for 23 consecutive days by Ki67 staining-based immunohistochemical analysis; type: functional, organism-based
MDA-MB-453 = test: Antiproliferative activity against human MDA-MB-453 cells after 72 hrs by MTT assay; type: functional, cell-based; conditions: MDA-MB-453, 72 h
SK-BR-3 = test: Antiproliferative activity against human SK-BR-3 cells after 72 hrs by MTT assay; type: functional, cell-based; conditions: SK-BR-3, 72 h
NCI/ADR-RES = test: Antiproliferative activity against human MCF7/ADR cells after 72 hrs by MTT assay; type: functional, cell-based
HCC1937 = test: Antiproliferative activity against human HCC1937 cells after 72 hrs by MTT assay; type: functional, cell-based; conditions: HCC1937, 72 h
T47D = test: Antiproliferative activity against human T47D cells after 72 hrs by MTT assay; type: functional, cell-based

Compound	Ratio IC50 (MDA-MB-231 [1])	IC50 (DU-4475 [2]) [nM]	Ratio IC50 (DU-4475 [3])	Ratio IC50 (HCC1806 [4])	Ratio IC50 (MDA-MB-468 [5])	IC50 (HCC1806 [6]) [nM]	IC50 (MDA-MB-231 [7]) [nM]	IC50 (MDA-MB-468 [8]) [nM]	further results
C=C1C(=O)[C@]23[C@H](O)[C@H]1CC[C@H]2[C@]12C=CCC(C)(C)[C@H]1[C@H](O)[C@@]3(O)OC2	6 - 12	1610	6 - 12	6 - 12	6 - 12	2350	2330	1440	–
CC(=O)O[C@H]1C(=O)[C@@]2(C)[C@H]([C@H](OC(=O)c3ccccc3)[C@]3(O)C[C@H](OC(=O)[C@H](O)[C@@H](NC(=O)c4ccccc4)c4ccccc4)C(C)=C1C3(C)C)[C@]1(OC(C)=O)CO[C@@H]1C[C@@H]2O [PACLITAXEL]	–	–	–	–	–	–	–	–	Activity [9]: Toxic; Activity (HCC1806 [10]): Active; Activity (HCC1806 [11]): Active; Activity (HCC1806 [12]): Active; Activity (HCC1806 [13]): 66%; Activity (HCC1806 [14]): Active; Activity (HCC1806 [15]): Active; Activity (HCC1806 [16]): Active; Activity (HCC1806 [17]): Active
C=C1C(=O)[C@]23[C@H](O)[C@H]1CC[C@H]2[C@]12CCCC(C)(C)[C@H]1[C@H](O)[C@@]3(O)OC2	6 - 12	2360	6 - 12	6 - 12	6 - 12	2390	2960	2240	–
C=C1C(=O)[C@]23[C@H](O)[C@H]1CC[C@H]2[C@@]12CO[C@]3(O)[C@@H](O)[C@@H]1C(C)(C)CC[C@@H]2O [ORIDONIN]	–	17000	–	–	–	21700	17900	17300	IC50 (MDA-MB-453): 6670 nM; IC50 (SK-BR-3): 8490 nM; IC50 (NCI/ADR-RES): 26200 nM; IC50 (HCC1937): 8270 nM; IC50 (T47D): 7560 nM
C=C1C(=O)[C@@]23C(=O)[C@@H]4OC[C@@]5([C@H]4C(C)(C)CC[C@@H]5O)[C@@H]2CC[C@@H]1[C@H]3O	–	1370	–	–	–	2420	1680	2400	–
C=C1C(=O)[C@@]23C(=O)[C@@H]4OC[C@]5(C=CCC(C)(C)[C@@H]45)[C@@H]2CC[C@@H]1[C@H]3OC(=O)/C=C/c1ccncc1F	–	1100	–	–	–	1140	850	1040	–
